From patent US20110263451A1, “BIOLOGICAL MARKERS PREDICTIVE OF RHEUMATOID ARTHRITIS RESPONSE TO LYMPHOTOXIN ANTAGONISTS” (GENENTECH, INC, priority 2008, published 2011)

Test system: human CD4′ Th1 cells
Test: TAPI-1 effect on soluble cytokines shed into culture supernatant of re-activated Th1 cells
Type: cell-based
Protocol: High Bind 96-well microtiter plates (Meso Scale Discovery (MSD), Gaithersburg, Md.) were spotted with 5 uL goat anti-human LTα clone AF211 (R&D Systems) diluted in PBS/0.05% Tween 20 (PBS/Tween) to 2 μg/ml, and incubated for one hour at room temperature. Wells were blocked with 150 uL PBS+5% BSA for 1-2 hours with agitation. Plates were washed 6× with PBS/Tween and a titration curve of recombinant human LTα3 (Genentech Inc.) controls, and test samples diluted in high salt assay diluent (HSAD: PBS, 0.5% BSA, 0.05% Tween 20, 0.25% CHAPS, 5 mM EDTA, 0.20% BgG, 0.35M NaCl, 10% FBS) were added at 25 μl/well and incubated for 2 hours with agitation. […] Plates were washed, 500 ng/mL Strepavidin-Sulgo-TAG® (MSD) diluted in AD was added at 25 μL/well, and plates were incubated for 30 minutes with agitation. Plates were washed with PBS/Tween 6×, and 150 μl/well of Read Buffer T (MSD) diluted 1:2 in H20 was added to wells. Plates were read on an MA6000 Sector™ Imager (MSD) according to manufacturer's. A weighted 4-parameter fit standard curve was plotted using XLFit (Guildford, UK) and values of unknowns were extrapolated.
Soluble human TNF-α, was detected using a human 96-well TNF-α kit (K111BHA-4, Meso Scale Discovery) according to manufacturer's instructions.
Total human CD4^+ T cells were isolated from PBMC with a CD4^+ T cell isolation kit (Miltenyi Biotec). Cells were cultured in complete DMEM media (DMEM supplemented with 10% FBS, 2 mM glutamine, 2 μM 2-ME, 1 mM sodium pyruvate, 100 U/ml penicillin and 100 μg/ml streptomycin) in presence of 5 μg/ml anti-CD3 mAb and 2 μg/ml anti-CD28 mAb. Human Th subset polarization conditions were as follows: Th0: 5 μg/ml anti-hIL-12, 5 μg/ml anti-hIFN-γ 1 μg/ml anti-hIL-4; Th1: 1 ng/ml rhIL-12, 10 ng/ml rhIFN-γ, 1 μg/ml anti-hIL-4; Th2: 5 ng/ml rhIL-4, 5 μg/ml anti-hIL-12, 6 μg/ml anti-hIFN-γ; Th17: 10 ng/ml rhIL-23, 10 μg/ml anti-hIL-12, 10 μg/ml anti-hIFN-γ. T cells were re-stimulated with 5 μg/mL anti-CD3 and 2 μg/mL anti-CD28 with indicated amount of TNFα protease inhibitor 1 (TAPI-1) (Peptides International) or DMSO as control.
At day1 and day2 after re-stimulation, cells were collected for FACS and RNA preparation; culture supernatants were collected for LT and TNF-α quantitation.
To determine if LTαβ complexes were shed by metalloproteinase cleavage, the TNFα protease inhibitor 1 (TAPI-1), known to inhibit the cleavage of TNFα by ADAM17 protease, was tested on human CD4′ Th1 cells. Culture supernatants were analyzed for solLTαβ, LTα3 and TNFα one day post re-activation in the presence or absence of TAPI-1 (FIGS. 2A & B). T cells were collected, cultured and polarized as in Example 2 above.

[1] = Th1 cells, 10 or 50 μM TAPI-1, 1 day post re-activation

In the case of `CC(C)C[C@H](CC(=O)NO)C(=O)N[C@@H](Cc1ccc2ccccc2c1)C(=O)N[C@@H](C)C(=O)NCCN` [TAPI-1], the “increase in cell surface LT” value (TAPI-1 treated Th1 cells, FACS, data not shown) is reported as “not accompanied by an increase in cell surface LT”, the “decrease of shed TNFα supernatant concentrations” value [1] is reported as 3-8 fold and the “secreted LTα3 in supernatant” value [1] is reported as “not affected”. The “decrease of soluble LTαβ levels in supernatants of re-activated cells” value (Th1 cells, 10 or 50 μM TAPI-1, 1 day post re-activation, dose dependent) was 2-7 fold.
